How the values were obtained:
SF 763 cells [1] = assay: Growth of GBM cells in continuous 14-day culture with ThAcr2; format: cell-based, human; details: 0.5, 1 and 2 μM ThAcr2, continuous 14 days, more pronounced effect on SF 763
Method: (§1) GBM cells were maintained in culture for 14 days in the presence of 0.5, 1 and 2 μM ThAcr2.

SF 767 cells [2] = assay: as above; format: cell-based, human; details: 0.5, 1 and 2 μM ThAcr2, continuous 14 days
Method: as §1

[3] = test system: GBM cell lines SF 763 and SF 767; assay: Short-term (3 days) cell viability; format: cell-based, human; details: 0.5, 1 and 2 μM
[4] = test system: telomere and telomerase (hTERT) in GBM cell lines SF 763 and SF 767; assay: Effects on telomere and telomerase (telomere length, hTERT expression by real-time RT-PCR); format: cell-based, human; details: 1 μM ThAcr2, 7 and 14 days
Method: (§2) The effects of 1 μM ThAcr2 on telomere and telomerase after 7 and 14 days of treatment were evaluated.

SF 763 cell = assay: Cytogenetic analysis of telomere fusions; format: cell-based, human
Method: The fusion frequency was 0.3 in untreated cells and 1.6 in ThAcr2-treated cells.
as §2

GBM cells = assay: Flow cytometry of cell cycle distribution and apoptosis (annexin-propidium iodide); format: cell-based, human; details: 7 days
Method: Using flow cytometry, cell cycle distribution and apoptosis in cells treated for 7 days with 0.5-2 μM ThAcr2 were examined. […] The percentage of cells in the G2/M phase increased from 10% to 20%. The annexin-propidium iodide (apoptotic) fraction was essentially identical (9-11%) in control and treated cells at lower ThAcr2 concentrations ([…]) but increased to 34% in cells treated with 2 μM ThAcr2.

SF 763 cells [5] = assay: Long-term (50 days) treatment with ThAcr2; format: cell-based, human; details: from day 30
Method: (§3) To further investigate the tumor-growth inhibition effect of ThAcr2 as a single agent, the GBM cells were exposed to 1 μM ThAcr2 for 50 days.

SF 767 cells [6] = assay: Long-term (50 days) treatment with ThAcr2; format: cell-based, human; details: 1 μM ThAcr2 for 50 days, from day 30
Method: as §3

SF 763 cells [7] = assay: Clonogenic survival, ThAcr2 combined with X-rays; format: cell-based, human; details: 1 μM ThAcr2 for 7 days, replated, 3 Gy X-rays, corrected for ThAcr2 alone
Method: (§4) To explore the effect of ThAcr2 in combination with ionizing radiation on GBM cells, clonogenic survival of SF 763 and SF 767 cells was analyzed. Although both cell lines were radio-resistant, the surviving fraction after 2 Gy was greater in SF 763 (80%) than in SF 767 cells (56%), indicating stronger resistance of SF 763 cells to radiation.
(§5) For combination experiments, non-toxic sub-apoptotic ThAcr2 concentrations of 0.5 and 1 μM were utilized. […] SF 763 cells were treated with […] ThAcr2 for 7 days, then replated and irradiated with a 3 Gy-dose of X-rays. SF 767 cells were treated with 0.5 μM ThAcr2 for 14 days, then replated and irradiated with a 2-Gy dose. […] The combination of ThAcr2 with radiation was additive when the ThAcr2 treatment started after irradiation.

SF 767 cells [8] = assay: Clonogenic survival, ThAcr2 combined with X-rays; format: cell-based, human; details: 0.5 μM ThAcr2 for 14 days, replated, 2-Gy X-rays, corrected for ThAcr2 alone
Method: as §4, §5

GBM tumor cells = assay: Clonogenic survival, ThAcr2 combined with radiation, schedule of combination; format: cell-based, human
Method: as §4, §5

[9] = test system: model guanine quadruplexes inspired from human telomeres; assay: Affinity for guanine quadruplexes; format: binding; details: 1:2 mixture of mono- and di-cation species
Source text: U-shaped molecules holding two potentially intercalating units 7 Å apart have been designed to have a moderate affinity for duplex DNA on the basis of the nearest neighbor exclusion principle but may display strong binding affinity for other architectures such as guanine quadruplexes.

glioblastoma cells = assay: Administration of compositions comprising ThAcr2 to glioblastoma cells; format: cell-based

4,6-bis-(6-(10-N-methylacrid-9-ylinium)pyridin-2-yl)-pyrimidine bistriflate [ThAcr2]
tumor cell growth (SF 763 cells [1]): inhibited tumor cell growth | tumor cell growth (SF 767 cells [2]): inhibited tumor cell growth | short-term cell viability [3]: non-toxic | telomere length [4]: did not reduce telomere length | telomere fusions (cytogenetic analysis) (SF 763 cell; 1 μM ThAcr2, day 7): multiple telomere fusions | telomere fusion frequency (SF 763 cell; SF 763 metaphase, FIG. 3, untreated cells 0.3): 1.6 | annexin-propidium iodide (apoptotic) fraction (GBM cells; 2 μM ThAcr2): 34% | percentage of cells in the G2/M phase (GBM cells; 0.5-2 μM ThAcr2, untreated 10%): 20% | annexin-propidium iodide (apoptotic) fraction (GBM cells; lower ThAcr2 concentrations (0.5 and 1 μM), identical in control): 9-11% | rate of cell proliferation after long-term treatment (SF 763 cells [5]; 1 μM ThAcr2 for 50 days): increase in the rate of cell proliferation | overexpression of telomerase (SF 763 cells [5]; 1 μM ThAcr2 long-term): up to 7 fold | rate of cell proliferation after long-term treatment (SF 767 cells [6]): increase in the rate of cell proliferation | reduction of surviving fraction of tumor cells (SF 763 cells [7]): 2.5 fold | reduction of surviving fraction of tumor cells (SF 767 cells [8]): 2.3 fold | clonogenic survival with combination therapy versus radiation alone (GBM tumor cells; FIG. 4, P<0.001): markedly decreased | combination of ThAcr2 with radiation (GBM tumor cells; ThAcr2 treatment started after irradiation): additive | combination of ThAcr2 with radiation (GBM tumor cells; cells continuously treated before and after irradiation): supra-additive or had a synergistic effect | affinity for model guanine quadruplexes [9]: strong affinity | glioblastoma cells after administration (glioblastoma cells): reduction of glioblastoma cells

From patent publication US20080119492A1, “Compositions and methods for treating cancer and other diseases characterized by abnormal cell proliferation” (priority 2005, published 2008)
